Experiments:
[1] = test system: JNK; experiment: Solid-state phosphorylation assay of JNK in mouse thymocytes; type: cell-based
Method: Jurkat cells were grown in RPMI with 10% fetal calf serum (FCS), 1 mM […], 100 μ/ml penicillin (pen), 100 μg/ml streptomycin (strep) and 250 ng/ml amphotericin (complete medium). HeLa S3, CV-1 and FR3T3 cells were grown in DMEM supplemented with 10% FCS, 100 μ/ml pen, 100 μg/ml strep. All cells were cultured at 37° C. with 5% CO2. Mouse thymocytes were prepared from 8 week old Balb/C mice by gradient centrifugation on lymphocyte separation medium (Pharmacia). The lymphocytes were cultured for 5 hours at 37° C. in RPMI+10% FCS, prior to stimulation. Jurkat cells were labelled for 90 minutes with 0.5 mCi/ml ^32P-orthophosphate (ICN Radiochemicals) in medium lacking sodium phosphate. Labelled cells were treated with TPA (Sigma) and A23187 (Calbiochem) 1 μg/ml as indicated. When used, cyclosporin A (CsA) (Sandoz) 100 ng/ml in ethanol was added 10 minutes prior to cell stimulation. Following stimulation, the labelled cells were washed twice with ice-cold PBS then lysed with RIPA buffer (10 mM Tris pH 7.5, 150 mM NaCl, 2 mM EDTA, 1% Triton-X 100, 1% DOC, 0.1% SDS) supplemented with phosphatase inhibitors (20 mM β-glycerophosphate, 10 mM p-nitro-phenylphosphate, 1 mM Na3 VO4), and protease inhibitors (10 μg/ml leupeptin, aprotonin, pepstatin and 1 mM phenylmethyl sulfonylfluoride). c-Jun was immunoprecipitated as described (Binetruy, et al., supra., 1992) and analyzed by SDS-PAGE, followed by peptide mapping (Boyle, et al., Cell, 64:573-584, 1991; Lin, et al. Cell, 70:777-789, 1992). Ha-Ras was immunoprecipitated with Y13-259. Ha-Ras bound nucleotides were extracted and analyzed as described by Satoh, et al., (Proc. Natl. Acad. Sci., USA, 15:5993-5997, 1990).
We examined whether elevated intracellular Ca^++ affects JNK activation in other cells. […] Cultures of FR3T3, CV-1, PC12 and mouse thymocytes were incubated for 15 minutes in the presence of TPA (50 ng/ml, T), A23817 (1 μg/ml, A) and/or CsA (100 ng/ml), as indicated. […] After washing, JNK activity was determined by solid-state phosphorylation assay as described above.

[2] = test system: ERK1 and ERK2; experiment: ERK1 and ERK2 immunecomplex kinase assay with MBP substrate, Jurkat cells and mouse thymocytes; type: cell-based, human; mouse
Method: Exponentially growing cells were stimulated for the indicated times and hypotonic detergent cellular extracts were prepared as described (Hibi, et al., Genes and Dev., supra, 1993). The solid-state phosphorylation assay for measuring JNK activity was performed by incubated extracts with GSTcJun(1-223)-GSH agarose beads as described (Hibi, et al., supra., 1993) and as in Example 2. ERK1 and 2 activity was assayed by an immunecomplex kinase assay using MBP as a substrate (Minden, et al., Nature, 1993).
JNK is a proline-directed protein kinase activated by extracellular stimuli (Hibi, et al., supra, 1993). In that respect, it resembles the ERK1 and 2 MAP kinases (Boulton, et al., Cell, 65:663-675, 1991). Since ERK1 and 2 appear to be involved in induction of c-fos (Gille, et al., Nature, 358:414-417, 1992; Marais, et al., Cell, 73:381-393, 1993) and could thereby participate in T cell activation, their regulation was examined. ERK1 and ERK2 activities were measured in both Jurkat and mouse thymocytes using an immunecomplex kinase assay and myelin basic protein (MBP) as a substrate. Recombinant, kinase-defective ERK1 was also used a substrate for assaying MEK, the protein kinase responsible for activation of ERK1 and 2 (Crews, et al., Science, 258:478-480, 1992).
WCE (5 μg) of Jurkat (FIG. 15, panel A) or mouse thymocytes (panel C) were incubated with 1 μg of kinase-defective ERK1 in kinase buffer containing γ-^32P-ATP for 20 minutes. The phosphorylated proteins were separated by SDS-PAGE and the band corresponding to the mutant ERK1 is indicated. WCE (20 μg) of Jurkat (panel B) or mouse thymocytes (panel C) that were treated as described above were immunoprecipitated with anti-ERK antibodies (a gift from Dr. M. Weber). The immune complexes were washed and incubated in kinase buffer containing γ-^32P-ATP and 2 μg MBP for 15 minutes at 30° C. The phosphorylated proteins were separated by SDS-PAGE. The band corresponding to phosphorylated MBP is indicated.

[3] = test system: Ha-Ras; experiment: GTP content of Ha-Ras in 32P-labelled Jurkat cells; type: cell-based, human; settings: for Ha-Ras activation measured by increase in GTP content, agent alone: 10 ng/ml TPA, 1 μg/ml anti-CD3 or 2 μg/ml anti-CD28, 2 minutes
Method: Jurkat cells 10×10^6 were labelled for 3 hours with ^32P-orthophosphate (ICN Radiochemicals) at 1 mCi/ml in 5 mM of Na3VO4 phosphate-free DMEM supplemented with 1 mg/ml BSA. Before harvest, cells were stimulated with TPA, 10 ng/ml, A23187, 1 μg/ml anti-CD3 antibody (OKT3), 10 μg/ml, anti-CD28 antibody, 2 μg/ml or their combinations. After treatment for a specified period, cells were washed once immediately with ice cold PBS, twice with ice-cold Tris-Buffered saline (50 mM Tris-HCl, pH 7.5, 20 mM MgCl2, 150 mM NaCl, […] Nonidet P-40/1 μg/ml of aprotinin, leupeptin, pepstatin and 1 mM phenylmethyl sulfonylfluoride). Ras p21 was immunoprecipitated with monoclonal antibody […] (Santa Cruz Biotechnology, Inc., Santa Cruz, Calif.). The GDP/GTP content of Ras was analyzed by TLC as described (Satoh, et al., Proc. Natl. Acad. Sci., USA, 15:5993, 1990) and quantitated with an Ambis radioanalytic image system (Ambis, San Diego, Calif.).
Jurkat cells (2×10^6 cells per point) labeled with 0.4 mCi of ^32P-orthophosphate for 3 hours were incubated with nonspecific antibody (1 μg/ml mouse IgG; control), 1 μg/ml anti-CD3, 2 μg/ml anti-CD28, 10 ng/ml TPA or 500 ng/ml A23187 (A), as indicated. After 2 minutes, the cells were harvested, lysed and Ha-Ras was isolated by immunoprecipitation. The guanine nucleotide bound to Ha-Ras were extracted, separated by thin layer chromatography and quantitiated as described in EXAMPLE 9. The values shown represent the averages of two separate experiments done in duplicates. Jurkat cells were labeled with ^32P-orthophosphate and stimulated with either TPA or anti-CD3 as described above. At the indicated time points, the cells were harvested and the GTP content of Ha-Ras was determined as described directly above.

CNc1ccc2oc(C[C@H]3O[C@@]4(CC[C@H]3C)O[C@H]([C@H](C)C(=O)c3ccc[nH]3)[C@H](C)C[C@H]4C)nc2c1C(=O)O [A23187]
JNK activity, costimulation with TPA ([1]; A23187 1 μg/ml plus TPA): enhanced
ERK activity, effect of A23187 or CsA [2]: had no effect on either activity
Ha-Ras activation by anti-CD3 or TPA, costimulation with anti-CD28 or A23187, respectively [3]: not augmented

CCCCCCCCCCCCCC(=O)O[C@@H]1[C@@H](C)[C@@]2(O)[C@@H](C=C(CO)C[C@]3(O)C(=O)C(C)=C[C@@H]23)[C@H]2C(C)(C)[C@]12OC(C)=O [TPA]
JNK activity, TPA alone ([1]; TPA 50 ng/ml, 15 minutes): moderate increase in JNK activity
ERK activity, TPA treatment ([2]; Jurkat cells or mouse thymocytes): fully stimulated
Ha-Ras activation measured by increase in GTP content, agent alone [3]: activation of Ha-Ras
persistence of Ha-Ras activation ([3]; TPA): at least 20 minutes

anti-CD3: anti-CD3 monoclonal antibody OKT3
Ha-Ras activation measured by increase in GTP content, agent alone [3]: activation of Ha-Ras
time course of Ha-Ras response ([3]; soluble anti-CD3): highly transient

cyclosporin A [CsA]
JNK activity, CsA added to TPA+A23187 ([1]; CsA 100 ng/ml): inhibited
ERK activity, effect of A23187 or CsA [2]: had no effect on either activity

— patent US6706509B2, “Oncoprotein protein kinase” (The Regents of the University of California, priority 1993, dated 2004)
